In assay [1] the test system is influenza virus A/PR/8/34. In words: Mouse influenza A model, Compound (1) with or without Oseltamivir, treatment +48 h. It is filed as in vivo, Balb/c mice.
The subject of another assay is influenza A virus. It is filed as in vivo, mice.
The test system of assay [2] is influenza virus B/Mass/3/66. In words: Mouse influenza B model, Compound (1) with or without Oseltamivir. Format: in vivo, Balb/c mice.
A further assay deals with influenza A. In words: Mouse influenza A model: lung viral titer. The following applies: study day 6. Format: in vivo, mice. The protocol: The effectiveness of Compound (1) to reduce lung viral titers was investigated. Mice were infected with influenza A and 24 h later vehicle, oseltamivir (10 mg/kg BID) or Compound (1) (3, 10, 30 mg/kg BID) was administered until lung harvest and viral burden determination on day 6 (Table 27).

For assay [3], the system named is A/Puerto Rico/8/34.
Assay [4] deals with Influenza A/Victoria/3/75 (H3N2) virus. Format: in vivo, BALB/c mice.
Assay [5] has as its system Influenza A/California/04/2009 (pndH1N1) virus. It is filed as in vivo. The following applies: pndH1N1 BALB/c mice.
Assay [6] relates to Influenza A/Vietnam/1203/2004 (H5N1) virus. It is filed as in vivo, BALB/c mice. The following applies: treatment +48 h.
Another assay relates to influenza A/PR/8/34. In words: Mouse influenza A model, combination of Compound (1) with zanamivir. Format: in vivo. The following applies: A/PR/8/34 mice, no Compound (1). The protocol:
Infected mice were treated with vehicle or escalating dose levels of Form A of the Compound (1) HCl hemihydrate salt Form A (hereinafter in this example simply Compound (1)) in combination with zanamivir starting 24 hours prior to influenza A challenge with 5×10^3 TCID50 A/PR/8/34. The influenza A challenge and Compound (1) suspensions were prepared in a similar manner as described above in Example 8. The challenged mice were treated once IN (intranasal) with zanamivir at 0.3 mg/kg, 1 mg/kg or 3 mg/kg 24 hours prior to IN challenge with 5×10^3 TCID50 A/PR/8/34, and with Compound (1) at 0.1 mg/kg, 0.3 mg/kg, or 1 mg/kg BID for 10 days starting −2 hours prior to the challenge with 5×10^3 TCID50 A/PR/8/34.
Efficiency quotient, a composite measure of survival, bodyweight loss and lung function (% survival/(% body weight loss at Day 8)*(Penh at Day 6)) is summarized in Table 24B.

The subject of assay [7] is A/Puerto Rico/8/34. It is filed as cell-based, influenza A virus.
[8] abbreviates: influenza A/PR/8/34 mice, Oseltamivir 10 mg/kg PO BID 10 days alone, from +48 h.
[9] abbreviates: treatment start +24 h, 10 mg/kg BID.
[10] abbreviates: treatment start +48 h, 10 mg/kg BID.
Where [11] appears, read: treatment start +72 h, 10 mg/kg BID.
Where [12] appears, read: influenza B/Mass/3/66 mice, Oseltamivir 10 mg/kg PO BID 10 days alone.
Setting [13] is: 10 mg/kg twice a day for 10 days starting 2 hours prior to virus exposure.
The mark [14] stands for this setting: 10 mg/kg twice a day, prophylaxis.
[15] abbreviates: Oseltamivir 10 mg/kg BID prophylaxis.
[16] abbreviates: 10 mg/kg twice a day for 10 days.

The record followed here is patent publication US20200397784A1 (priority 2019, published 2020).

Read-outs that look alike come from different tables or passages of the source. Marks after values point to notes of the source that are not given here.

Regarding `CCOC(=O)C1=C[C@@H](OC(CC)CC)[C@H](NC(C)=O)[C@@H](N)C1` [Oseltamivir, oseltamivir], the “protection from death, BW loss, lung function” value in assay [1] (Oseltamivir 10 mg/kg alone, +48 hours post influenza A infection) is on record as “did not protect from death”; in [2] (Oseltamivir 10 mg/kg alone, 2 hours prior to influenza B infection), “complete protection from death”. Moreover, the “Penh (Day 3)” value in assay [1] (setting [8]) is given as 2.36. Further, the figures for the “Survival (21 days)” value in assay [1] (setting [8]) and in [2] (setting [12]) were 0% and 100%, respectively. In addition, the results for the “Weight Loss (Day 8)” value in assay [1] (setting [8]) and in [2] (setting [12]) were 32.0% and 12.8%, respectively. In addition, the survival entry with influenza A virus (mouse influenza A model, oseltamivir 10 mg/kg BID, same experiment) is listed as “All of the oseltamivir-administered mice survived”; with influenza A virus (mouse, in vivo), “All of the oseltamivir-administered mice survived”. For the same compound, the “protection with delayed dosing” value in the assay on influenza A virus (mouse, in vivo) is “only provided complete protection when dosing was initiated 24 h or less”. Moreover, the “Percent Survival” value in the assay with influenza A virus (mouse, in vivo, 10 mg/kg) amounted to 100%; in the assay with influenza A virus (setting [9]) it was 100%; in the assay on influenza A virus (setting [10]), 80%; with influenza A virus (setting [11]), 0%. Moreover, the “Percent Body Weight Loss on Study Day 8” value in the assay with influenza A virus (setting [9]) is on record as −28.9%; with influenza A virus (setting [10]), −31.1%; with influenza A virus (setting [11]) it was −31.3%; in the assay with influenza A virus (treatment start −2 h, 10 mg/kg BID), −19.1%. Moreover, in [2] (setting [12]), the “Penh (Day 6/7)” value is given as 1.08. The “Lung Viral Titer” value in the assay with influenza A (Study 1, 10 mg/kg BID from 24 h post infection for 5 days) came out at 6.05 Log10 TCID50. In the assay with influenza A (Study 1, 10 mg/kg BID from 24 h post infection), the “Log10 Reduction vs. Vehicle” value is recorded as −0.15 Log10. Moreover, in the assay on A/Puerto Rico/8/34 [3], the “C.I. (combination index)” value is on record as 0.58. Moreover, the “MDD ± SD (mean day of death of mice that died on or before day 21)” value in assay [4] (setting [13]) is 7.0 days; in assay [6] (setting [16]), 9.5 ± 1.2 days. In addition, the Survivors/Total in assay [4] (setting [13]) is 9/10***; in assay [5] (Oseltamivir 10 mg/kg twice a day for 10 days starting 2 hours prior to virus exposure), 10/10***; in assay [6] (setting [16]), 0/10. Moreover, the entries for the “Mean Lung Parameters (Day 6): Virus Titer” value in assay [4] (setting [14]), in assay [5] (setting [15]) and in [6] (10 mg/kg twice a day) were 7.0 ± 0.3 Log10 CCID50/g, 7.9 ± 0.2 Log10 CCID50/g and 5.22 ± 0.38 Log10 CCID50/g, respectively. Further, the “Mean Lung Parameters (Day 6): Weight” value in [4] (setting [14]) worked out at 218 ± 24 mg; in assay [5] (setting [15]), 178 ± 28 mg. Moreover, the “Mean Lung Parameters (Day 6): Score” value in assay [4] (10 mg/kg twice a day, prophylaxis, lung hemorrhage score 0-4) was 1.7 ± 1.1; in assay [5] (Oseltamivir 10 mg/kg BID prophylaxis, hemorrhage score 0-4), 1.0 ± 0.0^e.

`CC(=O)N[C@H]1[C@H]([C@H](O)[C@H](O)CO)OC(C(=O)O)=C[C@@H]1N=C(N)N` [Zanamivir, zanamivir]: the “Survival Rate” value with influenza A/PR/8/34 (Zanamivir 0.3 mg/kg IN x 1, 24 h prior to infection) was 37.5; with influenza A/PR/8/34 (Zanamivir 1 mg/kg IN x 1, 24 h prior to infection), 50; in the assay with influenza A/PR/8/34 (Zanamivir 3 mg/kg IN x 1, 24 h prior to infection) it was 62.5. The “Efficiency Quotient (% survival/(% body weight loss at Day 8)*(Penh at Day 6))” value with influenza A/PR/8/34 (Zanamivir 0.3 mg/kg IN x 1) turned out to be 0.44; in the assay with influenza A/PR/8/34 (Zanamivir 1 mg/kg IN x 1), 0.73; with influenza A/PR/8/34 (Zanamivir 3 mg/kg IN x 1), 0.73. Further, in the assay on A/Puerto Rico/8/34 [7], the synergy volume is reported as 268. In the assay on A/Puerto Rico/8/34 [3], the “C.I. (combination index)” value came to 0.64.

With `NC(=O)c1nc(F)c[nH]c1=O` [favipiravir], the synergy volume with A/Puerto Rico/8/34 [7] is on record as 317. Also, in the assay with A/Puerto Rico/8/34 [3], the “C.I. (combination index)” value is 0.89.

Turning to `CCC(CC)O[C@@H]1C=C(C(=O)O)C[C@H](N)[C@H]1NC(C)=O` [oseltamivir carboxylate], the synergy volume in the assay with A/Puerto Rico/8/34 [7] (in combination with Compound (1), Bliss independence method, […]) was determined as 312.
